The numbers were not newly measured in US5710046A, “Tagging hydrocarbons for subsequent identification” (Amoco Corporation, priority 1994, dated 1998), which cites them from elsewhere.

The mark [1] stands for this setting: dispersed in methanol or benzene.

`CCN1C(=CC=CC=CC=Cc2sc3ccc4ccccc4c3[n+]2CC)Sc2ccc3ccccc3c21` [DDTC, 3,3'-diethyl-2,2'-(4,5', 4',5'-dibenzo) thiatricarbocyanine iodide]: under setting [1], the fluorescence wavelength result is “approximately 840 nanometers” and the strong absorption is given as 786 nanometers. Where the note is “in water”, the fluorescence result is “completely non-fluorescent” and the solubility entry is reported as “less soluble”.
